According to patent US9221832B2, “Heterocyclic amide derivatives as P2X7 receptor antagonists” (ACTELION PHARMACEUTICALS LTD., priority 2011, dated 2015):

The compounds below were run against human recombinant P2X7 receptor (Homo sapiens (Human), UniProt Q99572) (assay: YO-PRO assay: P2X7 receptor antagonistic activity). Conditions: HEK cells expressing human P2X7.
Type: cell-based
Procedure: The P2X7 receptor antagonistic activity of the compounds of formula (I) is determined in accordance with the following experimental method.
Cell Line Generation and YO-PRO Assay
Cell line generation was performed in general according to established molecular cloning protocols. Specifically, RNA was extracted from human whole blood using the Qiagen RNeasy kit (Qiagen, CH) according to the manufacturer's instructions. Subsequently cDNA was made (Superscript II, Invitrogen AG, CH) and the human P2X7 gene (genbank ref. BC011913) was amplified with the following primers: […] and […]. The amplified sequence was subsequently ligated into a pcDNA3.1 (+) NotI, NheI digested plasmid. […] Following a 24 h exposure to DNA, cells were trypsinized and re-seeded at low density in the presence of 250 μg Geneticin. Geneticin resistant cells were then selected during two consecutive rounds of cloning by serial limiting dilution with visual inspection. Individual clones were screened for P2X7 expression by applying ATP and recording the resultant uptake of YO-PRO1. Specific cell clones were chosen based on RNA and protein expression. HEK cells stably expressing P2X7 were used to screen drugs using the YO-PRO1 assay. Cells were grown to confluency in adherent culture at 37° C. in a humidified 5% CO2 incubator (split 1/5 every 3-4 days with DMEM, 10% FCS, 1% Penicillin/Streptomycin, 250 μg/ml Geneticin). Adherent cells were detached by incubation with Trypsine (1 ml per 165 cm^2 dish) for 2 minutes, then washed off with 10 ml PBS (without Mg^2+ and Ca^2+), and resuspended in DMEM, 10% FCS, 1% Penicillin/Streptomycin, no Geneticin. […] During this time period, four time points were taken. Each time point comprised the average of several measurements made within a few seconds. […] The FLIPR tetra was equipped with Molecular Devices Screen Works system control software to define and run experimental protocols. […] For IC50 measurements the maximum intensity is plotted against the concentration of compound to determine IC50 values.

Sequence of human recombinant P2X7 receptor (Q99572 whole entry): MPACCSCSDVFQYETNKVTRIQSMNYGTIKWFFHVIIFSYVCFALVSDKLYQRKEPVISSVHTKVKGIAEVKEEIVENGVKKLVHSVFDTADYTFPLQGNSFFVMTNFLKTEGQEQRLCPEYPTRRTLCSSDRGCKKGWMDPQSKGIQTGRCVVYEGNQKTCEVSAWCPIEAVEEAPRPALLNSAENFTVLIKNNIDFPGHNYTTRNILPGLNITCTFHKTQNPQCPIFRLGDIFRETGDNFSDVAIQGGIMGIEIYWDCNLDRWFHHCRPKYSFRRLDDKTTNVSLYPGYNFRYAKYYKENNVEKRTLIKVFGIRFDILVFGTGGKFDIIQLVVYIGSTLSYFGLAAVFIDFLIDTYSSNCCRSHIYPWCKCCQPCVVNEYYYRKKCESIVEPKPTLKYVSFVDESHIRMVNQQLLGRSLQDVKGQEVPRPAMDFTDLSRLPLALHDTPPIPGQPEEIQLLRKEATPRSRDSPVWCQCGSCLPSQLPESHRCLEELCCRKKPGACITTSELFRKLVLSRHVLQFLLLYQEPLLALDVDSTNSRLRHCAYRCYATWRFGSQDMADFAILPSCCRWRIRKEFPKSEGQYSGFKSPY

Row | Structure (SMILES) | IC50
1 | O=C(Cc1cccc(C(F)F)c1Cl)NC1COc2ncccc21 (racemic) [Example 114, rac-2-(2-Chloro-3-difluoromethyl-phenyl)-N-(2,3-dihydro-furo[2,3-b]pyridin-3-yl)-acetamide] | 7.6 nM
2 | O=C(Cc1cccc(C(F)(F)F)c1Cl)NC1COc2cnc(Cl)cc21 (racemic) [Example 115, rac-N-(5-Chloro-2,3-dihydro-furo[2,3-c]pyridin-3-yl)-2-(2-chloro-3-trifluoromethyl-phenyl)-acetamide] | 81 nM
3 | O=C(Cc1ccc(Cl)cc1Cl)NC1COc2cnc(Cl)cc21 (racemic) [Example 116, rac-N-(5-Chloro-2,3-dihydro-furo[2,3-c]pyridin-3-yl)-2-(2,4-dichloro-phenyl)-acetamide] | 350 nM
4 | Cc1cncc2c1C(NC(=O)Cc1cccc(C(F)(F)F)c1Cl)CO2 (racemic) [Example 128, rac-2-(2-Chloro-3-trifluoromethyl-phenyl)-N-(4-methyl-2,3-dihydro-furo[2,3-c]pyridin-3-yl)-acetamide] | 5.6 nM
5 | O=C(Cc1cccc(C(F)(F)F)c1Cl)NC1COc2c1ccc[n+]2[O-] (racemic) [Example 129, rac-2-(2-Chloro-3-trifluoromethyl-phenyl)-N-(7-oxy-2,3-dihydro-furo[2,3-b]pyridin-3-yl)-acetamide] | 123 nM
6 | Cc1cc(Cl)cc(Cl)c1CC(=O)NC1COc2cncc(C)c21 (racemic) [Example 131, rac-2-(2,4-Dichloro-6-methyl-phenyl)-N-(4-methyl-2,3-dihydro-furo[2,3-c]pyridin-3-yl)-acetamide] | 14 nM
7 | O=C(Cc1cccc(C(F)(F)F)c1Cl)NC1COc2cncc(C3CC3)c21 (racemic) [Example 132, rac-2-(2-Chloro-3-trifluoromethyl-phenyl)-N-(4-cyclopropyl-2,3-dihydro-furo[2,3-c]pyridin-3-yl)-acetamide] | 506 nM
8 | Cc1ccc2c(n1)OCC2NC(=O)Cc1c(C)cc(Cl)cc1Cl (racemic) [Example 133, rac-2-(2,4-Dichloro-6-methyl-phenyl)-N-(6-methyl-2,3-dihydro-furo[2,3-b]pyridin-3-yl)-acetamide] | 43 nM
9 | Cc1ccc2c(n1)OCC2NC(=O)Cc1cccc(C(F)(F)F)c1Cl (racemic) [Example 134, rac-2-(2-Chloro-3-trifluoromethyl-phenyl)-N-(6-methyl-2,3-dihydro-furo[2,3-b]pyridin-3-yl)-acetamide] | 21 nM
10 | COc1cc(C)nc2c1C(NC(=O)Cc1cccc(C(F)(F)F)c1Cl)CO2 (racemic) [Example 135, rac-2-(2-Chloro-3-trifluoromethyl-phenyl)-N-(4-methoxy-6-methyl-2,3-dihydro-furo[2,3-b]pyridin-3-yl)-acetamide] | > 4780 nM
11 | CCOc1cc(C)nc2c1C(NC(=O)Cc1cccc(C(F)(F)F)c1Cl)CO2 (racemic) [Example 136, rac-2-(2-Chloro-3-trifluoromethyl-phenyl)-N-(4-ethoxy-6-methyl-2,3-dihydro-furo[2,3-b]pyridin-3-yl)-acetamide] | > 10000 nM
12 | Cc1ccnc2c1C(NC(=O)Cc1cccc(C(F)(F)F)c1Cl)CO2 (racemic) [Example 137, rac-2-(2-Chloro-3-trifluoromethyl-phenyl)-N-(4-methyl-2,3-dihydro-furo[2,3-b]pyridin-3-yl)-acetamide] | 37 nM
13 | Cc1cc(Cl)cc(Cl)c1CC(=O)NC1COc2nccc(C)c21 (racemic) [Example 138, rac-2-(2,4-Dichloro-6-methyl-phenyl)-N-(4-methyl-2,3-dihydro-furo[2,3-b]pyridin-3-yl)-acetamide] | 99 nM
14 | COc1ccnc2c1C(NC(=O)Cc1cccc(C(F)(F)F)c1Cl)CO2 (racemic) [Example 139, rac-2-(2-Chloro-3-trifluoromethyl-phenyl)-N-(4-methoxy-2,3-dihydro-furo[2,3-b]pyridin-3-yl)-acetamide] | 272 nM
15 | O=C(COc1ccc(Cl)cc1Cl)NC1COc2ncccc21 (racemic) [Example 140, rac-2-(2,4-Dichloro-phenoxy)-N-(2,3-dihydro-furo[2,3-b]pyridin-3-yl)-acetamide] | > 8410 nM
16 | O=C(COc1ccc(Cl)c(Cl)c1)NC1COc2ncccc21 (racemic) [Example 141, rac-2-(3,4-Dichloro-phenoxy)-N-(2,3-dihydro-furo[2,3-b]pyridin-3-yl)-acetamide] | > 8630 nM
17 | Cc1ccc(OCC(=O)NC2COc3ncccc32)c(C)c1 (racemic) [Example 142, rac-N-(2,3-Dihydro-furo[2,3-b]pyridin-3-yl)-2-(2,4-dimethyl-phenoxy)-acetamide] | > 9950 nM

Row | Structure (SMILES) | IC50
18 | O=C(Cc1cccc(C(F)(F)F)c1Cl)NC1COc2nc(Cl)ccc21 (racemic) [Example 143, rac-N-(6-Chloro-2,3-dihydro-furo[2,3-b]pyridin-3-yl)-2-(2-chloro-3-trifluoromethyl-phenyl)-acetamide] | 65 nM
19 | Cc1cc(Cl)cc(Cl)c1CC(=O)NC1COc2nc(Cl)ccc21 (racemic) [Example 144, rac-N-(6-Chloro-2,3-dihydro-furo[2,3-b]pyridin-3-yl)-2-(2,4-dichloro-6-methyl-phenyl)-acetamide] | 50 nM
20 | O=C(Cc1cccc(C(F)(F)F)c1Cl)NC1COc2c[n+]([O-])ccc21 (racemic) [Example 148, rac-2-(2-Chloro-3-trifluoromethyl-phenyl)-N-(6-oxy-2,3-dihydro-furo[2,3-c]pyridin-3-yl)-acetamide] | 165 nM
21 | Cc1cc(Cl)cc(Cl)c1CC(=O)NC1COc2nccc(C(F)(F)F)c21 (racemic) [Example 151, rac-2-(2,4-Dichloro-6-methyl-phenyl)-N-(4-trifluoromethyl-2,3-dihydro-furo[2,3-b]pyridin-3-yl)-acetamide] | 6690 nM
22 | O=C(Cc1cccc(C(F)(F)F)c1Cl)NC1COc2nccc(C(F)(F)F)c21 (racemic) [Example 152, rac-2-(2-Chloro-3-trifluoromethyl-phenyl)-N-(4-trifluoromethyl-2,3-dihydro-furo[2,3-b]pyridin-3-yl)-acetamide] | 861 nM
23 | Cc1cc(Cl)cc(Cl)c1CC(=O)NC1COc2ncccc21 (single isomer, unassigned) [Example 6, 2-(2,4-Dichloro-6-methyl-phenyl)-N-(2,3-dihydro-furo[2,3-b]pyridin-3-yl)-acetamide] | 16 nM
24 | Cc1cc(Cl)cc(Cl)c1CC(=O)NC1COc2ncccc21 (single isomer, unassigned) [Example 7, 2-(2,4-Dichloro-6-methyl-phenyl)-N-(2,3-dihydro-furo[2,3-b]pyridin-3-yl)-acetamide] | 3.5 nM
25 | Cc1cc(Cl)cc(Cl)c1CC(=O)NC1CCOc2ncccc21 (single isomer, unassigned) [Example 28, 2-(2,4-Dichloro-6-methyl-phenyl)-N-(3,4-dihydro-2H-pyrano[2,3-b]pyridin-4-yl)-acetamide] | 29 nM
26 | Cc1cc(Cl)cc(Cl)c1CC(=O)NC1CCOc2ncccc21 (single isomer, unassigned) [Example 29, 2-(2,4-Dichloro-6-methyl-phenyl)-N-(3,4-dihydro-2H-pyrano[2,3-b]pyridin-4-yl)-acetamide] | 172 nM
27 | O=C(Cc1cccc(C(F)(F)F)c1Cl)NC1COc2ncccc21 (single isomer, unassigned) [Example 73, 2-(2-Chloro-3-trifluoromethyl-phenyl)-N-(2,3-dihydro-furo[2,3-b]pyridin-3-yl)-acetamide] | 9.9 nM
28 | O=C(Cc1cccc(C(F)(F)F)c1Cl)NC1COc2ncccc21 (single isomer, unassigned) [Example 74, 2-(2-Chloro-3-trifluoromethyl-phenyl)-N-(2,3-dihydro-furo[2,3-b]pyridin-3-yl)-acetamide] | 4.7 nM
29 | CC(C(=O)NC1COc2ncccc21)c1ccc(Cl)cc1Cl (single isomer, unassigned) [Example 92, 2-(2,4-Dichloro-phenyl)-N-2,3-dihydro-furo[2,3-b]pyridin-3-yl-propionamide] | 9 nM
30 | CC(C(=O)NC1COc2ncccc21)c1ccc(Cl)cc1Cl (single isomer, unassigned) [Example 93, 2-(2,4-Dichloro-phenyl)-N-2,3-dihydro-furo[2,3-b]pyridin-3-yl-propionamide] | 137 nM
31 | CC(C(=O)NC1COc2ncccc21)c1ccc(Cl)cc1Cl (single isomer, unassigned) [Example 94, 2-(2,4-Dichloro-phenyl)-N-2,3-dihydro-furo[2,3-b]pyridin-3-yl-propionamide] | 11 nM
32 | CC(C(=O)NC1COc2ncccc21)c1ccc(Cl)cc1Cl (single isomer, unassigned) [Example 95, 2-(2,4-Dichloro-phenyl)-N-2,3-dihydro-furo[2,3-b]pyridin-3-yl-propionamide] | 104 nM
33 | N#Cc1cccc(CC(=O)NC2COc3ncccc32)c1Cl (single isomer, unassigned) [Example 98, 2-(2-Chloro-3-cyano-phenyl)-N-2,3-dihydro-furo[2,3-b]pyridin-3-yl-acetamide] | 29 nM
